# According to ChEMBL document CHEMBL1133772, “In vitro and in vivo evaluation of dihydropyrimidinone C-5 amides as potent and selective alpha(1A) receptor antagonists for the treatment of benign prostatic hyperplasia” (J Med Chem, 2000):
# Molecular target: T1, Alpha-1B adrenergic receptor (Homo sapiens, UniProt P35368)
# T1 sequence (P35368 whole entry): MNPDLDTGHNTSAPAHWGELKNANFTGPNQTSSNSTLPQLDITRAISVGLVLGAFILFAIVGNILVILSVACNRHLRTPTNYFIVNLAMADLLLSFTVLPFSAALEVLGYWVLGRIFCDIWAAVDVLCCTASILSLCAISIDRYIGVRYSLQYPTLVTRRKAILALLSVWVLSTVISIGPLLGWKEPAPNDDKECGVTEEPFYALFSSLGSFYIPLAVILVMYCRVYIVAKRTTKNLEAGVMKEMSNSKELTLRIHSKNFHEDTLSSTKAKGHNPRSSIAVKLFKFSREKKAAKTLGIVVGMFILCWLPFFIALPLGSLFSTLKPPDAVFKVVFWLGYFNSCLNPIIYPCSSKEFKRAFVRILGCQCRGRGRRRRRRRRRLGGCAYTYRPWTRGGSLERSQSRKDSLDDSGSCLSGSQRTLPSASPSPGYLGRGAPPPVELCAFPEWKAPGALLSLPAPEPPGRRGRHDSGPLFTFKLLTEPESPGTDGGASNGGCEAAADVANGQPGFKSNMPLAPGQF
# Assay: Evaluated for the ability to displace [125I]- HEAT from human cloned Alpha-1B adrenergic receptor stably expressed in LM cells.
# Assay type: cell-based
# Details: not given
row,SMILES,Ki
1,N#CC1(c2ccc(F)cc2)CCN(CCCNC(=O)C2=CNC(=O)N[C@@H]2c2ccc(F)c(F)c2)CC1,140 nM
2,CN1C=C(C(=O)NCCCN2CCC(C#N)(c3ccc(F)cc3C#N)CC2)[C@@H](c2ccc(F)c(F)c2)NC1=O,440 nM
3,CC1=C(C(=O)NCCCN2CCC(c3ccccn3)CC2)[C@@H](c2ccc(F)c(F)c2)NC(=O)N1,> 2000 nM
4,COCC1=C(C(=O)NCCCN2CCC(c3ccccc3C#N)CC2)[C@@H](c2ccc(F)c(F)c2)NC(=O)N1,285 nM
5,CC1=C(C(=O)NCCCN2CCC(c3ccc(F)cc3)CC2)[C@H](c2ccc(F)c(F)c2)NC(=O)N1C,110 nM
6,COCC1=C(C(=O)NCCCN2CCC(c3ccc(F)cc3C#N)CC2)[C@@H](c2ccc(F)c(F)c2)NC(=O)N1,35 nM
7,O=C1NC=C(C(=O)NCCCN2CCC(O)(c3ccc(F)cc3)CC2)[C@@H](c2ccc(F)c(F)c2)N1,160 nM
8,CC1=C(C(=O)NCCCN2CCC(C#N)(c3ccc(F)cc3)CC2)[C@@H](c2ccc(F)c(F)c2)NC(=O)N1C,1100 nM
9,CN1C=C(C(=O)NCCCN2CCC(c3ccc(F)cc3C#N)CC2)[C@@H](c2ccc(F)c(F)c2)NC1=O,7.9 nM
10,O=C1NC(C(F)(F)F)=C(C(=O)NCCCN2CCC(c3ccc(F)cc3)CC2)[C@@H](c2ccc(F)c(F)c2)N1,270 nM
11,O=C1NC=C(C(=O)NCCCN2CCC(c3ccccn3)CC2)[C@@H](c2ccc(F)c(F)c2)N1,1850 nM

# Tested on: not listed separately
# Assay: Bioavailability in rat
# Assay type: ADME, organism-based
# Details: in vivo
row,SMILES,bioavailability
1,N#CC1(c2ccc(F)cc2)CCN(CCCNC(=O)C2=CNC(=O)N[C@@H]2c2ccc(F)c(F)c2)CC1,0%
2,CN1C=C(C(=O)NCCCN2CCC(C#N)(c3ccc(F)cc3C#N)CC2)[C@@H](c2ccc(F)c(F)c2)NC1=O,0%
3,CC1=C(C(=O)NCCCN2CCC(c3ccccn3)CC2)[C@@H](c2ccc(F)c(F)c2)NC(=O)N1,0%
4,COCC1=C(C(=O)NCCCN2CCC(c3ccccc3C#N)CC2)[C@@H](c2ccc(F)c(F)c2)NC(=O)N1,< 6%
5,COCC1=C(C(=O)NCCCN2CCC(c3ccc(F)cc3C#N)CC2)[C@@H](c2ccc(F)c(F)c2)NC(=O)N1,< 6%
6,O=C1NC=C(C(=O)NCCCN2CCC(O)(c3ccc(F)cc3)CC2)[C@@H](c2ccc(F)c(F)c2)N1,0%
7,CC1=C(C(=O)NCCCN2CCC(C#N)(c3ccc(F)cc3)CC2)[C@@H](c2ccc(F)c(F)c2)NC(=O)N1C,< 6%
8,CN1C=C(C(=O)NCCCN2CCC(c3ccc(F)cc3C#N)CC2)[C@@H](c2ccc(F)c(F)c2)NC1=O,0%

# Species: Rattus norvegicus
# Assay: Duration of action with repeated challenges of A61603 agonist in rat; also: test concentration or dose not given here
# Assay type: functional
# Details: not given
row,SMILES,Duration
1,N#CC1(c2ccc(F)cc2)CCN(CCCNC(=O)C2=CNC(=O)N[C@@H]2c2ccc(F)c(F)c2)CC1,0.75 h
2,CN1C=C(C(=O)NCCCN2CCC(C#N)(c3ccc(F)cc3C#N)CC2)[C@@H](c2ccc(F)c(F)c2)NC1=O,3.5 h
3,CC1=C(C(=O)NCCCN2CCC(c3ccccn3)CC2)[C@@H](c2ccc(F)c(F)c2)NC(=O)N1,0.5 h
4,COCC1=C(C(=O)NCCCN2CCC(c3ccccc3C#N)CC2)[C@@H](c2ccc(F)c(F)c2)NC(=O)N1,0.6 h
5,COCC1=C(C(=O)NCCCN2CCC(c3ccc(F)cc3C#N)CC2)[C@@H](c2ccc(F)c(F)c2)NC(=O)N1,1.5 h
6,O=C1NC=C(C(=O)NCCCN2CCC(O)(c3ccc(F)cc3)CC2)[C@@H](c2ccc(F)c(F)c2)N1,0.5 h
7,CC1=C(C(=O)NCCCN2CCC(C#N)(c3ccc(F)cc3)CC2)[C@@H](c2ccc(F)c(F)c2)NC(=O)N1C,1.5 h
8,CN1C=C(C(=O)NCCCN2CCC(c3ccc(F)cc3C#N)CC2)[C@@H](c2ccc(F)c(F)c2)NC1=O,4 h

# Molecular target: T2, Alpha-1A adrenergic receptor (Homo sapiens, UniProt P35348)
# T2 sequence (P35348 whole entry): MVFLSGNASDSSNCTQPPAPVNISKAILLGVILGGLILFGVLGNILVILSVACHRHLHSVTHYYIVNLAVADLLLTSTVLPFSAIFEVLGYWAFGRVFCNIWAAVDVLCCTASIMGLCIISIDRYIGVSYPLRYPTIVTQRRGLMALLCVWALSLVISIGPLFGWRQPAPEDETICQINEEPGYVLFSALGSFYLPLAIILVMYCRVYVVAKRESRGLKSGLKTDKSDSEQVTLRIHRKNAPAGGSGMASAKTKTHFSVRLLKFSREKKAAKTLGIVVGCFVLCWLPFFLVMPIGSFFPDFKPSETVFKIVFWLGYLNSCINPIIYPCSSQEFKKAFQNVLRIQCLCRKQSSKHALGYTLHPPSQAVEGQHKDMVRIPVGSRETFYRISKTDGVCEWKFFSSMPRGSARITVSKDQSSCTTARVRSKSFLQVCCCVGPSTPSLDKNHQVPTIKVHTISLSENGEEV
# Assay: Evaluated for the ability to displace [125I]- HEAT from human cloned Alpha-1A adrenergic receptor stably expressed in CHO cells.
# Assay type: cell-based
# Details: not given
row,SMILES,Ki
1,N#CC1(c2ccc(F)cc2)CCN(CCCNC(=O)C2=CNC(=O)N[C@@H]2c2ccc(F)c(F)c2)CC1,0.17 nM
2,CN1C=C(C(=O)NCCCN2CCC(C#N)(c3ccc(F)cc3C#N)CC2)[C@@H](c2ccc(F)c(F)c2)NC1=O,0.18 nM
3,CC1=C(C(=O)NCCCN2CCC(c3ccccn3)CC2)[C@@H](c2ccc(F)c(F)c2)NC(=O)N1,2.6 nM
4,COCC1=C(C(=O)NCCCN2CCC(c3ccccc3C#N)CC2)[C@@H](c2ccc(F)c(F)c2)NC(=O)N1,0.42 nM
5,CC1=C(C(=O)NCCCN2CCC(c3ccc(F)cc3)CC2)[C@H](c2ccc(F)c(F)c2)NC(=O)N1C,20 nM
6,COCC1=C(C(=O)NCCCN2CCC(c3ccc(F)cc3C#N)CC2)[C@@H](c2ccc(F)c(F)c2)NC(=O)N1,0.14 nM
7,O=C1NC=C(C(=O)NCCCN2CCC(O)(c3ccc(F)cc3)CC2)[C@@H](c2ccc(F)c(F)c2)N1,0.91 nM
8,CC1=C(C(=O)NCCCN2CCC(C#N)(c3ccc(F)cc3)CC2)[C@@H](c2ccc(F)c(F)c2)NC(=O)N1C,0.39 nM
9,CN1C=C(C(=O)NCCCN2CCC(c3ccc(F)cc3C#N)CC2)[C@@H](c2ccc(F)c(F)c2)NC1=O,0.068 nM
10,O=C1NC=C(C(=O)NCCCN2CCC(c3ccccn3)CC2)[C@@H](c2ccc(F)c(F)c2)N1,2.5 nM

# Molecular target: T2, Alpha-1A adrenergic receptor
# Assay: Ability to displace [125I]- HEAT from human cloned Alpha-1A adrenergic receptor stably expressed in CHO cells.
# Assay type: cell-based
# Details: not given
row,SMILES,Ki
1,O=C1NC(C(F)(F)F)=C(C(=O)NCCCN2CCC(c3ccc(F)cc3)CC2)[C@@H](c2ccc(F)c(F)c2)N1,19 nM

# Molecular target: T3, Alpha-1D adrenergic receptor (Homo sapiens, UniProt P25100)
# T3 sequence (P25100 whole entry): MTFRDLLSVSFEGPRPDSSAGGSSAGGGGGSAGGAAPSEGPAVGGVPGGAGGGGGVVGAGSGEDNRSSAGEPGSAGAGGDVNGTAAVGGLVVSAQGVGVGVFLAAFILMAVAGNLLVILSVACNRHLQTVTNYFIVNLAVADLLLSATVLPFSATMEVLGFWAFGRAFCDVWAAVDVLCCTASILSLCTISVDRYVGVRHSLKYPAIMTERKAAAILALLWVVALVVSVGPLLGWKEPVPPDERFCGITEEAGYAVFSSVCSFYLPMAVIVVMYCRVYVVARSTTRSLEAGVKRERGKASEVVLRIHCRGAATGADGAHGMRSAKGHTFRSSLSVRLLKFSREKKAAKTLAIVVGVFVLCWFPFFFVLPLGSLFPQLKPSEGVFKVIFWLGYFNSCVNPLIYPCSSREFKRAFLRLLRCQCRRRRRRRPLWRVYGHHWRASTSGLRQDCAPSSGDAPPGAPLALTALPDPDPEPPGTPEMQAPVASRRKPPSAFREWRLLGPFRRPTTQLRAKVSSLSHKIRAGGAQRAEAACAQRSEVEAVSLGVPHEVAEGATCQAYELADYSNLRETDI
# Assay: Evaluated for the ability to displace [125I]- HEAT from human cloned Alpha-1D adrenergic receptor stably expressed in HEK cells.
# Assay type: cell-based, HEK293
# Details: not given
row,SMILES,Ki
1,N#CC1(c2ccc(F)cc2)CCN(CCCNC(=O)C2=CNC(=O)N[C@@H]2c2ccc(F)c(F)c2)CC1,810 nM
2,CN1C=C(C(=O)NCCCN2CCC(C#N)(c3ccc(F)cc3C#N)CC2)[C@@H](c2ccc(F)c(F)c2)NC1=O,630 nM
3,CC1=C(C(=O)NCCCN2CCC(c3ccccn3)CC2)[C@@H](c2ccc(F)c(F)c2)NC(=O)N1,> 5000 nM
4,COCC1=C(C(=O)NCCCN2CCC(c3ccccc3C#N)CC2)[C@@H](c2ccc(F)c(F)c2)NC(=O)N1,285 nM
5,COCC1=C(C(=O)NCCCN2CCC(c3ccc(F)cc3C#N)CC2)[C@@H](c2ccc(F)c(F)c2)NC(=O)N1,260 nM
6,O=C1NC=C(C(=O)NCCCN2CCC(O)(c3ccc(F)cc3)CC2)[C@@H](c2ccc(F)c(F)c2)N1,880 nM
7,CC1=C(C(=O)NCCCN2CCC(C#N)(c3ccc(F)cc3)CC2)[C@@H](c2ccc(F)c(F)c2)NC(=O)N1C,2200 nM
8,CN1C=C(C(=O)NCCCN2CCC(c3ccc(F)cc3C#N)CC2)[C@@H](c2ccc(F)c(F)c2)NC1=O,69 nM
9,O=C1NC(C(F)(F)F)=C(C(=O)NCCCN2CCC(c3ccc(F)cc3)CC2)[C@@H](c2ccc(F)c(F)c2)N1,1200 nM
10,O=C1NC=C(C(=O)NCCCN2CCC(c3ccccn3)CC2)[C@@H](c2ccc(F)c(F)c2)N1,> 3000 nM

# Species: Rattus norvegicus
# Assay: Evaluated for the inhibition of A61603-induced prostate contraction in rat
# Assay type: functional, Prostate gland
# Details: not given
row,SMILES,AD50
1,N#CC1(c2ccc(F)cc2)CCN(CCCNC(=O)C2=CNC(=O)N[C@@H]2c2ccc(F)c(F)c2)CC1,7 µg/kg
2,CN1C=C(C(=O)NCCCN2CCC(C#N)(c3ccc(F)cc3C#N)CC2)[C@@H](c2ccc(F)c(F)c2)NC1=O,4 µg/kg
3,CC1=C(C(=O)NCCCN2CCC(c3ccccn3)CC2)[C@@H](c2ccc(F)c(F)c2)NC(=O)N1,2.3 µg/kg
4,COCC1=C(C(=O)NCCCN2CCC(c3ccccc3C#N)CC2)[C@@H](c2ccc(F)c(F)c2)NC(=O)N1,7 µg/kg
5,COCC1=C(C(=O)NCCCN2CCC(c3ccc(F)cc3C#N)CC2)[C@@H](c2ccc(F)c(F)c2)NC(=O)N1,2.8 µg/kg
6,O=C1NC=C(C(=O)NCCCN2CCC(O)(c3ccc(F)cc3)CC2)[C@@H](c2ccc(F)c(F)c2)N1,1.2 µg/kg
7,CC1=C(C(=O)NCCCN2CCC(C#N)(c3ccc(F)cc3)CC2)[C@@H](c2ccc(F)c(F)c2)NC(=O)N1C,21 µg/kg
8,CN1C=C(C(=O)NCCCN2CCC(c3ccc(F)cc3C#N)CC2)[C@@H](c2ccc(F)c(F)c2)NC1=O,5 µg/kg

# Tested on: not listed separately
# Assay: t1/2 in rat
# Assay type: ADME, organism-based
# Details: in vivo
row,SMILES,half-life
1,N#CC1(c2ccc(F)cc2)CCN(CCCNC(=O)C2=CNC(=O)N[C@@H]2c2ccc(F)c(F)c2)CC1,140 min
2,CN1C=C(C(=O)NCCCN2CCC(C#N)(c3ccc(F)cc3C#N)CC2)[C@@H](c2ccc(F)c(F)c2)NC1=O,< 60 min
3,CC1=C(C(=O)NCCCN2CCC(c3ccccn3)CC2)[C@@H](c2ccc(F)c(F)c2)NC(=O)N1,42 min
4,COCC1=C(C(=O)NCCCN2CCC(c3ccccc3C#N)CC2)[C@@H](c2ccc(F)c(F)c2)NC(=O)N1,108 min
5,COCC1=C(C(=O)NCCCN2CCC(c3ccc(F)cc3C#N)CC2)[C@@H](c2ccc(F)c(F)c2)NC(=O)N1,175 min
6,O=C1NC=C(C(=O)NCCCN2CCC(O)(c3ccc(F)cc3)CC2)[C@@H](c2ccc(F)c(F)c2)N1,37 min
7,CC1=C(C(=O)NCCCN2CCC(C#N)(c3ccc(F)cc3)CC2)[C@@H](c2ccc(F)c(F)c2)NC(=O)N1C,45 min
8,CN1C=C(C(=O)NCCCN2CCC(c3ccc(F)cc3C#N)CC2)[C@@H](c2ccc(F)c(F)c2)NC1=O,48 min

# Molecular target: T3, Alpha-1D adrenergic receptor
# Assay: Ability to displace [125I]- HEAT from human cloned Alpha-1D adrenergic receptor stably expressed in HEK cells.
# Assay type: cell-based, HEK293
# Details: not given
row,SMILES,Ki
1,CC1=C(C(=O)NCCCN2CCC(c3ccc(F)cc3)CC2)[C@H](c2ccc(F)c(F)c2)NC(=O)N1C,600 nM
